# Source: patent publication US8729074B2, “Inhibitors of PI3 kinase” (Amgen Inc., priority 2009, dated 2014)
# What was measured:
# mTOR = mTOR (Homo sapiens (Human), UniProt P42345); test: In vitro mTOR Lanthascreen assay; type: biochemical; conditions: average if run more than once
# Text: The Invitrogen (Carlsbad, Calif.) mammalian target of rapamycin (mTOR) Lanthascreen assay can be used to quantitate mTOR kinase activity in an in vitro setting. Active mTOR phosphorylates eukaryotic translation initiation factor 4E binding protein 1 (4E-BP1) on residue threonine 46. This phosphorylation event can be detected with a phospho-specific terbium (Tb) labeled Ab, in turn bringing the Tb label in close proximity to the GFP tagged 4E-BP 1 and allowing for time-resolved fluorescence resonance energy transfer (TR-FRET), which correlates 4E-BP1 phosphorylation levels with mTOR kinase activity.
# Enzyme reaction buffer can be prepared in deionized water containing 50 mM HEPES (pH 7.5), 0.01% Polysorbate 20, 1 mM EGTA, and 10 mM MnCl2.
# Dilutions of the compound to be tested can be prepared in 96-well polypropylene plates (Fisher Scientific, Waltham, Mass.). One row represents a 10-point dose of compound diluted 1:3 in enzyme reaction buffer and 20% dimethyl sulfoxide (DMSO). The top concentration for all compounds is 36 μM. Wells 6 and 12 can serve as the no compound (DMSO only) and high compound controls.
# An mTOR substrate solution can prepared in enzyme reaction buffer containing 1600 nM green fluorescent protein tagged eukaryotic translation initiation factor 4E binding protein 1 (GFP-4E-BP1) (Invitrogen, Carlsbad, Calif.) and 28 uM adenosine triphosphate (ATP) (Calbiochem, Gibbstown, N.J.).
# mTOR enzyme (Invitrogen, Carlsbad, Calif.) can be diluted in enzyme reaction buffer to a working concentration of 100 ng/mL.
# The enzyme assay can be run in 384 well low volume assay plates (Corning, Corning, N.Y.). 2.5 uL of substrate solution containing GFP-4E-BP1 and ATP can be added to appropriate wells in the assay plate followed by 2.5 μL of compound dilutions. 5 μL of appropriately diluted mTOR enzyme can be added and the reaction allowed to proceed for 1 hour at room temperature. Final reagent concentrations in the enzyme assay are 50 ng/mL mTOR, 400 nM GFP-4E-BP1, and 7 μM ATP.
# The enzyme assay can be terminated upon the addition of 10 μL of 20 mM EDTA and 4 nM Tb-labeled anti-phospho-4E-BP1 [T46] antibody (Invitrogen, Carlsbad, Calif.). The assay plate can then be incubated at room temperature for 1 hour and results read on a Tecan Safire II plate reader (Tecan, Männedorf, Switzerland).
# PI3Kα = PI3Kα (Homo sapiens (Human), UniProt P42336); test: In vitro PI3K AlphaScreen assay; type: biochemical; conditions: average if run more than once
# Chain of PI3Kα (P42336 whole entry): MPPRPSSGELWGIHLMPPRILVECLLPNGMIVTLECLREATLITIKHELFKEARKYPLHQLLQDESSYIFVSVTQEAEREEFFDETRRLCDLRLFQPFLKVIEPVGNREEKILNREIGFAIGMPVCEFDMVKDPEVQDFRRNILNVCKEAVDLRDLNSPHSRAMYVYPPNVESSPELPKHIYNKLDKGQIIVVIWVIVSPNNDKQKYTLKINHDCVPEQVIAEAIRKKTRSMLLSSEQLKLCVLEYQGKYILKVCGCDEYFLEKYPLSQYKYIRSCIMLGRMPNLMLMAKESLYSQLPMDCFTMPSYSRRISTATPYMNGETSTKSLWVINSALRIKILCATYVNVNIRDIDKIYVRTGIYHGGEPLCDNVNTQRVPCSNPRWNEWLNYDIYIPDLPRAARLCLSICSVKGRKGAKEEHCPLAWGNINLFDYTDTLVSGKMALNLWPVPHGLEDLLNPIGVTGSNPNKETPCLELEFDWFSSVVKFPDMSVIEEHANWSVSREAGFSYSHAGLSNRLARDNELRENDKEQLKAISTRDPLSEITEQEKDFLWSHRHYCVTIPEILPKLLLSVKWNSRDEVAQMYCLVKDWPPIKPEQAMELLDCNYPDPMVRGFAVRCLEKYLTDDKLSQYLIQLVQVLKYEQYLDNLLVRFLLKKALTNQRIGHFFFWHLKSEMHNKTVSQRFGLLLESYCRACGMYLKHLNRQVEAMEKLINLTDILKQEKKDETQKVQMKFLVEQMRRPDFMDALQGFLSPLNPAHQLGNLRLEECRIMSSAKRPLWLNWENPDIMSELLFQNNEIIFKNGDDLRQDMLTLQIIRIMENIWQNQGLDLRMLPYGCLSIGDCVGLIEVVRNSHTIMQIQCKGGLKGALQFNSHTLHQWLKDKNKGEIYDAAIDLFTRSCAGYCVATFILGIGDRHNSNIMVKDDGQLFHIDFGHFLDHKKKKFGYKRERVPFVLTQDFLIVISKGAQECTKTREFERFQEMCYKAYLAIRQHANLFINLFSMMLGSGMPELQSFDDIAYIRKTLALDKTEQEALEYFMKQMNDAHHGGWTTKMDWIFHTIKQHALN
# Chain of PI3Kα (P27986 whole entry partner): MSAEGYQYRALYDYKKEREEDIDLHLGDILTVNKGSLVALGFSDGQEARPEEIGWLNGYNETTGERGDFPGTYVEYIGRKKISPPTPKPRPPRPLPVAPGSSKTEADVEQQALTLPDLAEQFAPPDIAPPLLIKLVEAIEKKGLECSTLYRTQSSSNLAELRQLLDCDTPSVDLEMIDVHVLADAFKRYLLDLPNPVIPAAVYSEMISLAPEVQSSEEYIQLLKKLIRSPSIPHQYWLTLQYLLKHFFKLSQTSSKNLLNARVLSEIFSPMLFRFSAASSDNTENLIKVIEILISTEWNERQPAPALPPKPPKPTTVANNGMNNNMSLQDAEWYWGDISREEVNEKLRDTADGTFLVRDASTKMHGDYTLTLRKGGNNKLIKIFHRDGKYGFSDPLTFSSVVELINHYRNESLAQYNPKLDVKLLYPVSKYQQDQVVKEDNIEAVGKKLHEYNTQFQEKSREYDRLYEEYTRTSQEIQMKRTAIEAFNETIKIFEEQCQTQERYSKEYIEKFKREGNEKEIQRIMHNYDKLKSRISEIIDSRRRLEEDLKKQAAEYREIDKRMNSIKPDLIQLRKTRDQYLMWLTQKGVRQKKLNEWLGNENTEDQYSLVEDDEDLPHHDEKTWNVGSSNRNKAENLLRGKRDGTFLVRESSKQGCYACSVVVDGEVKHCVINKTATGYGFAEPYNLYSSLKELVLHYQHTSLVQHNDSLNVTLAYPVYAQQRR
# Procedure: In Vitro PI3K AlphaScreen® Assay
# The PI3K AlphaScreen® assay (PerkinElmer, Waltham, Mass.) measures the activity of a panel of four phosphoinositide 3-kinases: PI3Kα, PI3Kβ, PI3Kγ, and PI3Kδ. Each of these enzymes phosphorylates the 3′-hydroxyl group on phosphatidylinositiol (4,5)-bisphosphate (PIP2) to produce phosphatidylinositol (3,4,5)-trisphosphate (PIP3). This phosphorylation activity is measured using a GST-tagged PIP3 binding protein (Echelon Biosciences, Salt Lake City, Utah), an anti-GST-tagged Acceptor bead, and streptavidin-Donor bead. […] In the absence of this interaction, proximity of the Donor and Acceptor beads is decreased, producing a loss of luminescent signal which is inversely proportional to PI3K activity.
# The enzyme reaction buffer is made using sterile water (Baxter, Deerfield, Ill.) and 50 mM Tris HCl pH 7, 14 mM MgCl2, 2 mM sodium cholate, and 100 mM NaCl. 2 mM DTT is added fresh the day of the experiment. The AlphaScreen® reaction buffer is made using sterile water and 10 mM Tris HCl pH 7.5, 150 mM NaCl, 0.10% Tween 20, and 30 mM EDTA. 1 mM DTT is added fresh the day of the experiment.
# The source plates for this assay are 384-well Greiner clear polypropylene plates containing test compounds at 5 mM and diluted 1:2 over 22 points. Columns 23 and 24 contain only DMSO as these are designated for positive and negative controls. Source plates are replicated into 384-well Optiplates (PerkinElmer, Waltham, Mass.), 0.5 μL/well, to make assay-ready plates.
# The different PI3K isoforms are each diluted in enzyme reaction buffer to 2× working solutions. […] Two different 2× substrate solutions are made in enzyme reaction buffer. In one solution, PI(4,5)P2 (Echelon Biosciences, Salt Lake City, Utah) is diluted to 10 μM and ATP is diluted to 20 μM. This solution is used in the assays testing PI3Kα and PI3Kβ. In a second solution, PI(4,5)P2 is diluted to 10 μM and ATP is diluted to 8 μM. This solution is used in the assays testing PI3Kγ and PI3Kδ.
# The AlphaScreen® reaction solutions are made using beads from the anti-GST AlphaScreen® kit (PerkinElmer, Waltham, Mass.). Two solutions are made in Alphascreen reaction buffer to 4× working concentrations. In one solution, biotinylated-IP4 (Echelon Biosciences, Salt Lake City, Utah) is diluted to 40 nM and streptavadin-Donor Beads are diluted to 80 μg/mL. In the second solution, PIP3-binding protein (Echelon Biosciences, Salt Lake City, Utah) is diluted to 40 nM and anti-GST-Acceptor Beads are diluted to 80 μg/mL. 10 μL/well of enzyme reaction buffer is added to Column 24 of the assay ready plates in place of enzyme. This is done for plates in the PI3Kα, β, and δ assays.
# Using a 384-well dispensing Multidrop (Titertek, Huntsville, Ala.), 10 μL/well of 2× enzyme (PI3Kα, β, δ) is added to Columns 1-23 of the appropriate assay ready plates (for PI3Kγ 10 μL is added to Columns 1-24). 10 μL/well of the appropriate substrate solution (the solution with 20 μM ATP for PI3Kα and β assays, and the solution with […] for PI3Kγ and δ assays) is then added to Columns 1-24 of the plates. Plates are then incubated at room temperature for 20 minutes.
# In the dark, 10 μL/well of the Donor Bead solution is added to Columns 1-24 of the plates to quench the enzyme reaction. The plates are incubated at room temperature for 30 minutes. Still in the dark, 10 μL/well of the Acceptor Bead solution is also added to Columns 1-24 of the plates. The plates are then incubated in the dark for 1.5 hours. The plates are read on an Envision Multilabel Plate Reader (PerkinElmer, Waltham, Mass.) with a 680 nm excitation filter and a 520-620 nm emission filter.
# Activity data for the compounds tested in the assay is provided in Table 1 under the column heading PI3Kα AlphaScreen®.
# Chain of mTOR (P42345 1360-2549): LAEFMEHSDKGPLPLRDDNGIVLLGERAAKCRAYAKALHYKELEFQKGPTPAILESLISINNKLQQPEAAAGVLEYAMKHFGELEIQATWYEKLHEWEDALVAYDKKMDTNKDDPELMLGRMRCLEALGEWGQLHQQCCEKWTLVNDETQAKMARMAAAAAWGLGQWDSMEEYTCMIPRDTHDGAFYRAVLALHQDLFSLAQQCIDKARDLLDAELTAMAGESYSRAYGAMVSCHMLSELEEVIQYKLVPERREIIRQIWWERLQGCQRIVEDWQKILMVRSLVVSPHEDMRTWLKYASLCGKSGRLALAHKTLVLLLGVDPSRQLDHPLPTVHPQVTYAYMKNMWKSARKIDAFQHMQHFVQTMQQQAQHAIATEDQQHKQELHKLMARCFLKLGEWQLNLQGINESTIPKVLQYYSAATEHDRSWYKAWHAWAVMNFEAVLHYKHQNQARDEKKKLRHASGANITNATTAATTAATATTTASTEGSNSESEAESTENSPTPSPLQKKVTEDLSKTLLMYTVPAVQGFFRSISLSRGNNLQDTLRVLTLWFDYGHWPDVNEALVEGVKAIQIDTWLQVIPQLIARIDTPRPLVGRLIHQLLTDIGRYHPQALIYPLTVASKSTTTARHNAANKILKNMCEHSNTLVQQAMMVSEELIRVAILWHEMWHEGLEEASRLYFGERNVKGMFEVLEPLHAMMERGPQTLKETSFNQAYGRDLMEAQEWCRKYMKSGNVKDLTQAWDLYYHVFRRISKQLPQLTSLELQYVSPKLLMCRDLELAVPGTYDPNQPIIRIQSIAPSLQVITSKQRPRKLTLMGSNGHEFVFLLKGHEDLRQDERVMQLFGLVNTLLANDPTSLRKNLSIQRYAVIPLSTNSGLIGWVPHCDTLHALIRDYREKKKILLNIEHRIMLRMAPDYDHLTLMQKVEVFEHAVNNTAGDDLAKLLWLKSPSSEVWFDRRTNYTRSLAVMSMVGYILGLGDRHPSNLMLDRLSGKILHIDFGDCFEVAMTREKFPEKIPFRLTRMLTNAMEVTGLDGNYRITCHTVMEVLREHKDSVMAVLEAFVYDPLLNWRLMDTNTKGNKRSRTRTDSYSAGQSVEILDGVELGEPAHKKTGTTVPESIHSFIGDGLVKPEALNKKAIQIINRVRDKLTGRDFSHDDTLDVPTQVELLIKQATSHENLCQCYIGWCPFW
Structure (SMILES),IC50 (mTOR),Ki (PI3Kα)
"O=S(=O)(Nc1cc(-c2cnc3ccccn23)cnc1Cl)c1ccc(F)cc1 [Example 3, N-(2-Chloro-5-imidazo[1,2-a]pyridin-3-yl-3-pyridinyl)-4-fluorobenzenesulfonamide]",155 nM,28 nM
"Cc1ccn2c(-c3cnc(Cl)c(NS(=O)(=O)c4ccc(F)cc4)c3)cnc2c1 [Example 4, N-(2-Chloro-5-(7-methylimidazo[1,2-a]pyridin-3-yl)-3-pyridinyl)-4-fluorobenzenesulfonamide]",,19 nM
"Cc1nc2ccc(Br)cn2c1-c1cnc(Cl)c(NS(=O)(=O)c2ccc(F)cc2)c1 [Example 5, N-(5-(6-Bromo-2-methylimidazo[1,2-a]pyridin-3-yl)-2-chloro-3-pyridinyl)-4-fluorobenzenesulfonamide]",848 nM,20 nM
"O=S(=O)(Nc1cc(-c2cnc3ccc(Br)cn23)cnc1Cl)c1ccc(F)cc1 [Example 6, N-(5-(6-Bromoimidazo[1,2-a]pyridin-3-yl)-2-chloro-3-pyridinyl)-4-fluorobenzenesulfonamide]",39 nM,6 nM
"O=S(=O)(Nc1cc(-c2cnc3ccc(-c4ccncc4)cn23)cnc1Cl)c1ccc(F)cc1 [Example 7, N-(2-Chloro-5-(6-(4-pyridinyl)imidazo[1,2-a]pyridin-3-yl)-3-pyridinyl)-4-fluorobenzenesulfonamide]",36 nM,2 nM
"O=S(=O)(Nc1cc(-c2cnc3ccc(-c4cccnc4)cn23)cnc1Cl)c1ccc(F)cc1 [Example 8, N-(2-Chloro-5-(6-(3-pyridinyl)imidazo[1,2-a]pyridin-3-yl)-3-pyridinyl)-4-fluorobenzenesulfonamide]",32 nM,1 nM
"O=S(=O)(Nc1cc(-c2cnc3ccc(N4CCOCC4)cn23)cnc1Cl)c1ccc(F)cc1 [Example 9, N-(2-Chloro-5-(6-(4-morpholinyl)imidazo[1,2-a]pyridin-3-yl)-3-pyridinyl)-4-fluorobenzenesulfonamide]",364 nM,4 nM
"COc1cc(-c2cnc3ccccn23)cnc1OC [Example 10, 3-(5,6-Dimethoxy-3-pyridinyl)imidazo[1,2-a]pyridine]",> 50000 nM,> 1500 nM
"COc1cc(-c2cnc3ccc(Br)cn23)cnc1OC [Example 11, 6-Bromo-3-(5,6-dimethoxy-3-pyridinyl)imidazo[1,2-a]pyridine]",2170 nM,779 nM
"COc1cc(-c2cnc3ccc(-c4ccncc4)cn23)cnc1OC [Example 12, 3-(5,6-Dimethoxy-3-pyridinyl)-6-(4-pyridinyl)imidazo[1,2-a]pyridine]",3750 nM,626 nM
"COc1cc(-c2cnc3ccc(N4CCOC4=O)cn23)cnc1OC [Example 13, 3-(3-(5,6-Dimethoxy-3-pyridinyl)imidazo[1,2-a]pyridin-6-yl)-1,3-oxazolidin-2-one]",9660 nM,> 1500 nM
"COc1cc(-c2cnc3ccc(N4CCOCC4)cn23)cnc1OC [Example 16, 3-(5,6-Dimethoxy-3-pyridinyl)-6-(4-morpholinyl)imidazo[1,2-a]pyridine]",4520 nM,1080 nM
"CN(C)S(=O)(=O)Nc1cc(-c2cnc3ccc(-c4ccncc4)cn23)cnc1Cl [Example 18, N-(2-Chloro-5-(6-(pyridin-4-yl)imidazo[1,2-a]pyridin-3-yl)pyridin-3-yl)dimethylaminosulfonamide]",15 nM,1 nM
"CN(C)S(=O)(=O)Nc1cc(-c2cnc3ccc(-c4ccnc(C(F)(F)F)c4)cn23)cnc1Cl [Example 19, N-(2-Chloro-5-(6-(2-(trifluoromethyl)pyridin-4-yl)imidazo[1,2-a]pyridin-3-yl)pyridin-3-yl)dimethylaminosulfonamid]",15 nM,1 nM
"CS(=O)(=O)Nc1cc(-c2cnc3cc(-c4cccnc4)ccn23)cnc1Cl [Example 20, N-(2-Chloro-5-(7-(pyridin-3-yl)imidazo[1,2-a]pyridin-3-yl)pyridin-3-yl)methanesulfonamide]",32 nM,5 nM
"CN(C)S(=O)(=O)Nc1cc(-c2cnc3cc(-c4ccncc4)ccn23)cnc1Cl [Example 21, N′-(2-Chloro-5-(7-(4-pyridinyl)imidazo[1,2-a]pyridin-3-yl)-3-pyridinyl)-N,N-dimethylsulfamide]",258 nM,15 nM
"CN(C)S(=O)(=O)Nc1cc(-c2cnc3cc(-c4cccnc4)ccn23)cnc1Cl [Example 22, N′-(2-Chloro-5-(7-(3-pyridinyl)imidazo[1,2-a]pyridin-3-yl)-3-pyridinyl)-N,N-dimethylsulfamide]",157 nM,21 nM
"Cc1cc2ncc(-c3cnc(Cl)c(NS(=O)(=O)N(C)C)c3)n2cc1-c1ccncc1 [Example 23, N′-(2-Chloro-5-(7-methyl-6-(4-pyridinyl)imidazo[1,2-a]pyridin-3-yl)-3-pyridinyl)-N,N-dimethylsulfamide]",18 nM,4 nM
"O=S(=O)(Nc1cc(-c2cnc3ccc(Cl)nn23)cnc1Cl)c1ccc(F)cc1 [Example 25, N-(2-Chloro-5-(6-chloroimidazo[1,2-b]pyridazin-3-yl)pyridin-3-yl)-4-fluorobenzenesulfonamide]",102 nM,22 nM
